According to patent US12383607B2, “Topical composition for improved healing of open wounds” (Eleos Pharmaceuticals, Inc., priority 2017, dated 2025):

System: wound
Assay: Patient wound healing study
Assay type: in vivo, human
Conditions: topical application directly in the wound
Source text: Thus, for example, a skin ailment could be treated using a disclosed composition as follows: • 1. Clean the skin ailment with soap and warm water, with either a wash cloth or gauze sponge. Cleaning may be lightly abrasive as the subject tolerates. Alternatively, the skin ailment can be cleaned with gauze, moistened with saline and hibiclens. Again, the cleaning may be lightly abrasive as the subject tolerates. • 2. Rinse the ailment thoroughly with warm water or saline so no soap residue remains. • 3. Apply the topical composition to a Q-Tip applicator and lightly cover the surface of the ailment with the composition. […] If eschar is present, apply the composition to the edge of the eschar and beneath the edge of the eschar. The composition need not be applied to the top of the eschar. • 4. Cover the ailment with dry gauze. Wrap and secure the gauze with Kling, Kerlex roll, or Ace wrap. The wrap should be loosely applied so as to secure the dressing but to not apply pressure to the ailment site. • 5. If there is surrounding dermatitis (redness), allow the area to dry (no wrap need be applied).
3. Summary of Patient Wound Healing Study
A summary of the results of a patient wound healing study are illustrated in Table 2 below. The average blood sugar (BS) change by age and class are shown in FIG. 2A and FIG. 2B, respectively. […]

With insulin the healing was “significantly enhances healing” and the wound glucose level was “decreases the wound glucose level”.
